Experimental data: patent US9115122B2, “Non-ATP dependent inhibitors of extracellular signal-regulated kinase (ERK)” (UNIVERSITY OF MARYLAND, BALTIMORE, priority 2012, dated 2015)

Legend:
ERK2 vs p38α MAP kinase = assay: Selectivity for ERK2 compared to p38α MAP kinase; format: binding
ERK2 L114A = ERK2 L114A (Rattus norvegicus (Rat), UniProt P63086, L114A); assay: Fluorescence quenching (FQ) binding affinity; conditions: read-out: KD L114A (Site 2)
[1] = system: ERK1/2-mediated phosphorylation of Elk-1; assay: Immunoblot of ERK1/2-mediated Elk-1 phosphorylation in EGF treated HeLa cells; format: cell-based; conditions: 100 μM, EGF 25 ng/mL 10 min
Method: (b) HeLa cells were pre-incubated for 30 min with indicated compounds (100 μM) followed by treatment with EGF (25 ng/mL) for 10 min. to activate ERK1/2 signaling. Lysates were immunoblotted for phosphorylated Elk1 (pElk1 S383) or active ERK1/2 (pERK1/2). […] The MEK1/2 inhibitor U0126 (10 μM) was used to block all ERK1/2 signaling and α-tubulin expression was used as a protein loading control.
Proteins were separated by SDS-PAGE, analyzed by immunoblotting, and detected using enhanced chemiluminescence (ECL, GE Healthcare, United Kingdom).

ERK2 L265A = ERK2 L265A (Rattus norvegicus (Rat), UniProt P63086, L265A); assay: Fluorescence quenching (FQ) binding affinity; conditions: read-out: KD L265A (Site 4)
[2] = system: Jurkat T-cell leukemia cells; assay: Cell proliferation, fluorescent Cell Titer Blue Assay (Example 1); format: cell-based; conditions: Homo sapiens, 48 hours
How it was run: (§1)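 Cells seeded at 25,000/well, cultured overnight, then treated with compound across a concentration range for 48 hours. Proliferation read by fluorescent Cell Titer Blue; repeated in 3 separate experiments.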

A375 melanoma cells = assay: as above; format: cell-based; conditions: Homo sapiens, A-375; 48 hours
How it was run: as §1

RPMI7951 melanoma cells = assay: as above; format: cell-based; conditions: Homo sapiens, RPMI-7951; 48 hours
How it was run: as §1

[3] = system: HeLa cervical carcinoma cells; assay: as above; format: cell-based; conditions: Homo sapiens, 48 hours
How it was run: as §1

[4] = system: MEK1-induced AP-1 promoter activity; assay: AP-1 promoter luciferase assay, HeLa cells expressing active MEK1 mutant; format: cell-based; conditions: Homo sapiens, 4 hours, read-out: IC50 inhibition of MEK1-induced AP-1 promoter activity
How it was run: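 HeLa transfected with AP-1 luciferase reporter; EGF-stimulated set pretreated 20 min with compound then EGF 25 ng/mL for 4.5 hr, MEK1 set co-transfected with constitutively active MEK1 mutant and compound-treated for final 4 hours. Luciferase normalized to protein, expressed relative to EGF-only or active MEK1-only; mean of three experiments.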

ERK2 L235A = ERK2 L235A (Rattus norvegicus (Rat), UniProt P63086, L235A); assay: Fluorescence quenching (FQ) binding affinity; conditions: read-out: KD L235A (Site 5)
ERK2 L198A/L232A = ERK2 L198A/L232A (Rattus norvegicus (Rat), UniProt P63086, L198A/L232A); assay: Fluorescence quenching (FQ) binding affinity; conditions: read-out: KD L198A/L232A (Site 5)
Chain of ERK2 L198A/L232A (P63086 whole entry L198A/L232A): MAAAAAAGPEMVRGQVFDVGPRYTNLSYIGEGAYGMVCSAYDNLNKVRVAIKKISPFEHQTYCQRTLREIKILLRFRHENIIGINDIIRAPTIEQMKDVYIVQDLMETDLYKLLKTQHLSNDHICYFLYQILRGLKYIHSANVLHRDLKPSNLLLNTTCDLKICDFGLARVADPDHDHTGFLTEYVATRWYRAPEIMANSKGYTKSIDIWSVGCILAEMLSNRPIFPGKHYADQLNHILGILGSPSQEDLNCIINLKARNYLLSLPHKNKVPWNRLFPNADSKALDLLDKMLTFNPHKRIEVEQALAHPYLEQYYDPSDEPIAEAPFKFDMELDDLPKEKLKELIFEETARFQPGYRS

Chain of ERK2 L235A (P63086 whole entry L235A): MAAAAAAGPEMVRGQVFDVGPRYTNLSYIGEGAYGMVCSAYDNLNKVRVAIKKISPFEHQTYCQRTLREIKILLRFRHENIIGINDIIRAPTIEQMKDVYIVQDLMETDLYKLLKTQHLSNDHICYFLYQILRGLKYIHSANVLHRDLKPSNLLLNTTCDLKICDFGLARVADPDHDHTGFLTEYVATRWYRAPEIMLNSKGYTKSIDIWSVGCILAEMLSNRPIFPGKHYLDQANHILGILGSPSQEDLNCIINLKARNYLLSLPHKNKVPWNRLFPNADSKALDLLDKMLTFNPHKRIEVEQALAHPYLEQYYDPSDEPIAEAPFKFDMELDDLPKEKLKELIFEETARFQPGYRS
Chain of ERK2 L114A (P63086 whole entry L114A): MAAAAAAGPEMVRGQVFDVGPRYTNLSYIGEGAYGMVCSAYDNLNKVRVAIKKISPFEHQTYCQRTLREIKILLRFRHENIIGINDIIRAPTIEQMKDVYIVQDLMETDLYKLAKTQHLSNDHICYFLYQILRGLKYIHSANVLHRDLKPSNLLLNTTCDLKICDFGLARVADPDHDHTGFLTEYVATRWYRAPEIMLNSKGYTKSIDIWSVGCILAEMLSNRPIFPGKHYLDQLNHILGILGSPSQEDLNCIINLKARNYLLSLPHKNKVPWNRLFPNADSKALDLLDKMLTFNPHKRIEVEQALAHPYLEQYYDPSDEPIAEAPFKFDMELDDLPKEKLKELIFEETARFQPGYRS
Chain of ERK2 L265A (P63086 whole entry L265A): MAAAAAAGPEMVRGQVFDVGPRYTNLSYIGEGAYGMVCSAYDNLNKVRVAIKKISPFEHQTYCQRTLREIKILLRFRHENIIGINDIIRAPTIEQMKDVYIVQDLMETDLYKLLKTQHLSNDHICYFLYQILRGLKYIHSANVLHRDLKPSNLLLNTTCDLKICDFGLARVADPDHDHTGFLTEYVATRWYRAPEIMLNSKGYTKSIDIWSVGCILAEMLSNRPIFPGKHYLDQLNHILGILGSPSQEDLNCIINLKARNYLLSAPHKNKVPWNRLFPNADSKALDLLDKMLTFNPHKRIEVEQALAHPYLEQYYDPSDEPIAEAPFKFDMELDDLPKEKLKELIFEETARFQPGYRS

selectivity for ERK2 as compared to p38α MAP kinase (ERK2 vs p38α MAP kinase): ~150 fold
Kd (ERK2 L114A): 0.027 ± 0.01 µM
Kd (ERK2 L265A): 0.28 µM
GI50 [2]: > 50 µM
GI50 (A375 melanoma cells): 7.8 µM
GI50 (RPMI7951 melanoma cells): 5.1 µM
GI50 [3]: 32 µM
IC50 [4]: ~40 µM
Kd (ERK2 L235A): 0.09 ± 0.02 µM
Kd (ERK2 L198A/L232A): 0.14 ± 0.02 µM
SMILES: O=S1(=O)C=CC(OS(=O)(=O)c2ccccc2)C1 (centres unmarked) [SF-3-026]
inhibition of ERK1/2-mediated Elk-1 phosphorylation [1]: inhibit ERK1/2-mediated phosphorylation
